Broadly, the IC50 is the concentration needed to halve the response being measured.

One compound from PMC5520944 (Cell Death & Disease, 2017) can be followed below.

The test system of assay [1] is L929sAhFas. As to the kind of experiment: cells. On the set-up: high-content necroptosis screen, percentage PI-positive nuclei as percent of DMSO plus stimulus control. From the text:
To identify novel inhibitors or regulators of necroptosis, 500 small compounds from libraries targeting autophagy, kinases, phosphatases, proteases and redox balance were screened for their ability to block TNF-induced necroptosis in murine L929sAhFas cells. Three conditions were used to induce necroptosis in L929 cells: TNF alone, TNF+TAK1 inhibitor (TAK1i) and TNF+zVAD-fmk, a pan-caspase inhibitor. Inhibition of TAK1 or caspases sensitizes to necroptosis.[13], [32] Necroptosis, measured as the percentage of PI-positive nuclei normalized to the plate-specific DMSO control, was determined for each compound (Supplementary Figure 1A). […] After compound treatment, L929sAhFas (a) or L929 (b) cells were stimulated with mTNF (T), mTNF+Tak1i (TiT) or mTNF+zVAD (zVT) (Supplementary Figure 1A and B). (a) Cell death percentage (% PI-positive nuclei) or cell loss was calculated as percent of control (DMSO+stimulus). […] (b) Cell loss (luminescence-based readout for ATP) was calculated as percent of control (DMSO+stimulus). […] In stimulated conditions, % PI-positive nuclei was determined as % of DMSO control. Data represent mean values±S.E.M. of two independent experiments. Cells were stained with Hoechst and PI and percentage PI-positive nuclei was determined using high-content image analysis (BD pathway Bioimager). (d) L929sAhFas cells were treated with Sorafenib (concentration as indicated) for 24 h. Then, stimulus was removed, 50 cells/condition seeded and colonies counted with crystal violet staining after 10 days incubation. […] Schemes of workflow screening assays in L929 cell lines. (A) Scheme of the workflow of a high-content screening assay on L929sAhFas cells using mTNF (T) and mTNF+Tak1i ((5Z)-7-Oxozeaenol) (TiT) to induce necroptotic cell death. Nec-1 and zVAD-fmk were used as protective and sensitizing benchmarks, respectively, on all plates. (B) Scheme of the workflow of a CellTiter-Glo luminescent cell viability screening assay on L929 cells using mTNF+zVAD (zVT) to induce necroptotic cell death. Supplementary Figure S2. Z’ calculation for cell death screening assays in L929 cells. (A) Z’ calculation for cell death screening assay (Fig. 1A) in mTNF-stimulated L929sAhFas cells. (B) Z’ calculation for cell death screening assay (Fig. 1A) in L929sAhFas cells stimulated with mTNF + Taki.

Assay [2] has as its system L929sAhFas. As to the kind of experiment: cells. On the set-up: high-content necroptosis screen, percentage PI-positive nuclei as percent of DMSO plus stimulus control. Conditions: mTNF-induced cell death, validation screen; read-out: Validation screen IC50 (µM) (TNF). From the text:
To identify novel inhibitors or regulators of necroptosis, 500 small compounds from libraries targeting autophagy, kinases, phosphatases, proteases and redox balance were screened for their ability to block TNF-induced necroptosis in murine L929sAhFas cells. Three conditions were used to induce necroptosis in L929 cells: TNF alone, TNF+TAK1 inhibitor (TAK1i) and TNF+zVAD-fmk, a pan-caspase inhibitor. Inhibition of TAK1 or caspases sensitizes to necroptosis.[13], [32] Necroptosis, measured as the percentage of PI-positive nuclei normalized to the plate-specific DMSO control, was determined for each compound (Supplementary Figure 1A). Z’ values for the TNF- and TNF+TAK1i-induced cell death assay were 0.498 and 0.919, respectively (Supplementary Figures 2A and B), indicating good assay performance. Sorafenib was identified as an effective inhibitor of both TNF- and TNF+TAK1i-induced necroptosis (Figure 1a). […] In an independent screening with 437 FDA-approved drugs and TNF+zVAD-fmk as necroptosis trigger in L929 cells (Supplementary Figure 1B), Sorafenib was also shown to be a potent inhibitor (Figure 1b). […] After compound treatment, L929sAhFas (a) or L929 (b) cells were stimulated with mTNF (T), mTNF+Tak1i (TiT) or mTNF+zVAD (zVT) (Supplementary Figure 1A and B). (a) Cell death percentage (% PI-positive nuclei) or cell loss was calculated as percent of control (DMSO+stimulus). Green points marked by the green dotted line represent a selection of kinase inhibitors from the screening on L929sAhFas cells (Supplementary Table 1), that are only slightly protective in the TNF-stimulated condition. (b) Cell loss (luminescence-based readout for ATP) was calculated as percent of control (DMSO+stimulus). […] In stimulated conditions, % PI-positive nuclei was determined as % of DMSO control. Data represent mean values±S.E.M. of two independent experiments. Cells were stained with Hoechst and PI and percentage PI-positive nuclei was determined using high-content image analysis (BD pathway Bioimager). (d) L929sAhFas cells were treated with Sorafenib (concentration as indicated) for 24 h. Then, stimulus was removed, 50 cells/condition seeded and colonies counted with crystal violet staining after 10 days incubation. Quantification was performed using ImageJ. n=2, a representative experiment is shown Legends supplementary figures Supplementary Figure S1. Schemes of workflow screening assays in L929 cell lines. (A) Scheme of the workflow of a high-content screening assay on L929sAhFas cells using mTNF (T) and mTNF+Tak1i ((5Z)-7-Oxozeaenol) (TiT) to induce necroptotic cell death. Nec-1 and zVAD-fmk were used as protective and sensitizing benchmarks, respectively, on all plates. (B) Scheme of the workflow of a CellTiter-Glo luminescent cell viability screening assay on L929 cells using mTNF+zVAD (zVT) to induce necroptotic cell death. Supplementary Figure S2. Z’ calculation for cell death screening assays in L929 cells. (A) Z’ calculation for cell death screening assay (Fig. 1A) in mTNF-stimulated L929sAhFas cells. (B) Z’ calculation for cell death screening assay (Fig. 1A) in L929sAhFas cells stimulated with mTNF + Taki.

Counter-ions that a name gives are not always drawn. Like-named read-outs stand apart in the source and are kept apart here.

For `CNC(=O)c1cc(Oc2ccc(NC(=O)Nc3ccc(Cl)c(C(F)(F)F)c3)cc2)ccn1` [Sorafenib tosylate], the activity at 10 µM was found to be 41.5% in assay [1] (read-out: cell death TNF (POC)) and 11.8% in assay [1] (read-out: cell death TNF/Taki (POC)). For the same compound, the IC50 in assay [2] was 3.25 µM.
